Assay results as given in ChEMBL document CHEMBL5154848, “Synthesis of heterocyclic ring-fused analogs of HMG499 as novel degraders of HMG-CoA reductase that lower cholesterol” (Eur J Med Chem, 2022).

Columns and labels:
[1] = Downregulation of HMGCR expression in CHO-K1 cells assessed as fold change in HMGCR expression at 1 uM incubated for 16 hrs by immunoblot analysis (reference value: 1.0); assay type: functional, Cricetulus griseus
RAW264.7 = experiment: Downregulation of LPS-stimulated IL-6 mRNA levels in mouse RAW264.7 cells pretreated with LPS for 2 hrs followed by compound treatment for 24 hrs by SYBR green dye based qRT-PCR analysis; assay type: functional, cell-based; conditions: dose <= 2.0 µM, DDE = dose-dependent effect
LX-2 [2] = experiment: Downregulation of TGF-beta-1-induced COL1A1 mRNA levels in serum starved human LX2 cells pretreated with TGF-beta-1 for 6 hrs followed by compound treatment for 24 hrs by SYBR green dye based qRT-PCR analysis; assay type: functional, cell-based; conditions: dose <= 2.0 µM, DDE = dose-dependent effect
LX-2 [3] = experiment: Downregulation of TGF-beta-1-induced cholesterol levels in human LX2 cells starved in serum free medium for 2 hrs followed by stimulation with TGF-beta-1 for 6 hrs and measured 24 hrs after compound treatment by; assay type: functional, cell-based; conditions: DDE = dose-dependent effect
[4] = target: T1, 3-hydroxy-3-methylglutaryl-coenzyme A reductase (Cricetulus griseus) (UniProt P00347); experiment: Induction of degradation of wild type HMGCR in CHO-K1 cells by immunoblot analysis; assay type: cell-based; conditions: DDE = dose-dependent effect
T1 sequence (whole entry): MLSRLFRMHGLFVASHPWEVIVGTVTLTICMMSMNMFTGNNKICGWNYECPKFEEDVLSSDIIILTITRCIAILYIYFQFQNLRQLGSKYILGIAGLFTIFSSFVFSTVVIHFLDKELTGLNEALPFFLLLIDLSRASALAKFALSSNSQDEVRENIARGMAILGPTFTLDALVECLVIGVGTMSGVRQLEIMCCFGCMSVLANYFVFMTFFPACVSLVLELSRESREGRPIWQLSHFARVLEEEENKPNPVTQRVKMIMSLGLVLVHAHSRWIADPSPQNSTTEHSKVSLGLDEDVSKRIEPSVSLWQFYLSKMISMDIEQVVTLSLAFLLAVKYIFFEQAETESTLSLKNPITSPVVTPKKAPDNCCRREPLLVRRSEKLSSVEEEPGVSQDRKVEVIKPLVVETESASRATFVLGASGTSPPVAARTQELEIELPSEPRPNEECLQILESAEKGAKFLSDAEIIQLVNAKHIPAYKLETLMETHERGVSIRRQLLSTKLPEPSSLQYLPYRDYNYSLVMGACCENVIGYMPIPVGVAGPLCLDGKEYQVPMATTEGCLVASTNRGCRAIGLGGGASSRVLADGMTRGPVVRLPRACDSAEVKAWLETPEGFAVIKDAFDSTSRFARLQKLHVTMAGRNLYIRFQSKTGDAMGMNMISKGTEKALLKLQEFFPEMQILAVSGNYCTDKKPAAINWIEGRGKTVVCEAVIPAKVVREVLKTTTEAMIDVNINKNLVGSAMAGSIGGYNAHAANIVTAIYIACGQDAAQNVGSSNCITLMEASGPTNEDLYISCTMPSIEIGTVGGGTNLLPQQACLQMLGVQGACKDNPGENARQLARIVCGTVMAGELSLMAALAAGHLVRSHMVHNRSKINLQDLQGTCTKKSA

[5] = Toxicity in human SV589 cells assessed as cholesterol accumulation in lysosome at 10 uM incubated for 16 hrs by immunofluorescence based confocal microscopy; assay type: cell-based; conditions: sv-589, 16 h
[6] = target: T2, 3-hydroxy-3-methylglutaryl-coenzyme A reductase (Cricetulus griseus, UniProt P00347); experiment: Induction of degradation of endogenous HMGCR in CHO-7 cells assessed as decrease in protein level incubated for 16 hrs in sterol-depleted medium by immunoblot analysis; assay type: cell-based
T2 sequence (P00347 whole entry): T1 sequence (whole entry)

LX-2 [7] = experiment: Downregulation of TGF-beta-1-induced TIMP1 mRNA levels in serum starved human LX2 cells pretreated with TGF-beta-1 for 6 hrs followed by compound treatment for 24 hrs by SYBR green dye based qRT-PCR analysis; assay type: functional, cell-based; conditions: dose <= 2.0 µM, DDE = dose-dependent effect
LX-2 [8] = experiment: Downregulation of TGF-beta-1-induced alpha-SMA protein level in serum starved human LX2 cells pretreated with TGF-beta-1 for 6 hrs followed by compound treatment for 24 hrs by Western blot analysis; assay type: functional, cell-based; conditions: DDE = dose-dependent effect
[9] = Downregulation of HMGCR expression in CHO-K1 cells assessed as fold change in HMGCR expression at 3 uM incubated for 16 hrs by immunoblot analysis (reference value: 1.0); assay type: functional, Cricetulus griseus

Activity [4]: Dde
EC50 [6]: 130 nM
SMILES: CC(=O)n1ncc2c1C(C)(C)C1=CC[C@H]3[C@@H]4CC[C@H]([C@H](C)CCC(=O)N5CCOCC5)[C@@]4(C)CC[C@@H]3[C@@]1(C)C2
fold change (FC) [1]: 0.3
Activity (RAW264.7): Dde
Activity (LX-2 [2]): Dde
Activity (LX-2 [3]): Dde
Activity [5]: Non-Toxic
Activity (LX-2 [7]): Dde
Activity (LX-2 [8]): Dde
fold change (FC) [9]: 0.1
